Results: PubChem BioAssay (NCI)
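Five concentrations, 48 hours, 96-well plates. Definition used: TGI = concentration required for complete inhibition of growth.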

How the values were obtained:
Assay in all cases: inhibition of tumour cell growth, NCI panel, 48 h
[1] = system: OVCAR-5 ovarian
[2] = system: SF-268 CNS
[3] = system: HT29 colon
[4] = system: KM12 colon
[5] = system: MCF7 breast
[6] = system: HS 578T breast
[7] = system: K-562 leukemia
[8] = system: RPMI-8226 leukemia
[9] = system: HCC-2998 colon
[10] = system: ACHN renal

C[C@@H](CC(O)C(O)C(C)(C)O)C1CCC23CC12CCC1[C@@]2(C)CCC(O)C(C)(C)C2CC(OC2OC(CO)C(O)C(O)C2O)[C@]13C (stereo not given in full)
TGI [1]: > 10 µM
TGI [2]: > 10 µM
TGI [3]: > 10 µM
TGI [4]: > 10 µM
TGI [5]: > 10 µM
TGI [6]: > 10 µM
TGI [7]: > 10 µM
TGI [8]: > 10 µM
TGI [9]: > 10 µM
TGI [10]: > 10 µM

O=C(CNc1ccccn1)Nn1cnc2ccc(S(=O)(=O)Nc3ccccn3)cc2c1=O
TGI [1]: > 100 µM
TGI [2]: > 100 µM
TGI [3]: > 100 µM
TGI [4]: > 100 µM
TGI [5]: > 100 µM
TGI [6]: > 100 µM
TGI [7]: > 100 µM
TGI [8]: > 100 µM
TGI [9]: > 100 µM
TGI [10]: > 100 µM

CC(C)(O)/C1=C/C=C/CCCCCCCCCC1
TGI [1]: > 100 µM
TGI [2]: > 100 µM
TGI [3]: > 100 µM
TGI [4]: > 100 µM
TGI [5]: > 100 µM
TGI [6]: 7.78 µM
TGI [7]: > 100 µM
TGI [8]: > 100 µM
TGI [9]: > 100 µM
TGI [10]: > 100 µM

CC(CSC(=N)N)C(N)=O (stereo not given)
TGI [1]: > 100 µM
TGI [2]: > 100 µM
TGI [3]: > 100 µM
TGI [4]: > 100 µM
TGI [5]: > 100 µM
TGI [6]: > 100 µM
TGI [7]: > 100 µM
TGI [8]: > 100 µM
TGI [9]: > 100 µM
TGI [10]: > 100 µM

COC(=O)C(CC(C)C)NC(=O)C(NC(=O)c1ccc(-c2ccc(Cl)cc2Cl)o1)C(C)C (stereo not given)
TGI [1]: > 100 µM
TGI [2]: 56.6 µM
TGI [3]: 42.6 µM
TGI [4]: 58.9 µM
TGI [5]: 44.7 µM
TGI [6]: 60.8 µM
TGI [7]: 53.1 µM
TGI [8]: 40.3 µM
TGI [9]: 31.7 µM
TGI [10]: 85.6 µM

COc1ccc(C(O)/C(=N/N)c2nc3ccc(Cl)cc3[nH]c2=O)cc1 (stereo not given)
TGI [1]: > 100 µM
TGI [2]: > 100 µM
TGI [3]: > 100 µM
TGI [4]: > 100 µM
TGI [5]: > 100 µM
TGI [6]: > 100 µM
TGI [7]: > 100 µM
TGI [8]: > 100 µM
TGI [9]: > 100 µM
TGI [10]: > 100 µM

CCOC1OC(CO)C(O)CC1n1ccc(=O)[nH]c1=O (stereo not given)
TGI [1]: > 100 µM
TGI [2]: > 100 µM
TGI [3]: > 100 µM
TGI [4]: > 100 µM
TGI [5]: > 100 µM
TGI [6]: > 100 µM
TGI [7]: > 100 µM
TGI [8]: > 100 µM
TGI [9]: > 100 µM
TGI [10]: > 100 µM

CC(=O)CCCCn1c(=O)c2c(nc(Br)n2C)n(C)c1=O
TGI [1]: > 100 µM
TGI [2]: > 100 µM
TGI [3]: > 100 µM
TGI [4]: > 100 µM
TGI [5]: > 100 µM
TGI [6]: > 100 µM
TGI [7]: > 100 µM
TGI [8]: > 100 µM
TGI [9]: > 100 µM
TGI [10]: > 100 µM

COc1nc(N=P(c2ccccc2)(c2ccccc2)c2ccccc2)cc(=O)n1C
TGI [1]: > 100 µM
TGI [2]: > 100 µM
TGI [3]: > 100 µM
TGI [4]: > 100 µM
TGI [5]: > 100 µM
TGI [6]: > 100 µM
TGI [7]: > 100 µM
TGI [8]: > 100 µM
TGI [9]: > 100 µM
TGI [10]: > 100 µM

CSc1ncnc2c1cnn2Cc1cn(COCCO)nn1
TGI [1]: > 100 µM
TGI [2]: > 100 µM
TGI [3]: 55.4 µM
TGI [4]: > 100 µM
TGI [5]: > 100 µM
TGI [6]: > 100 µM
TGI [7]: > 100 µM
TGI [8]: > 100 µM
TGI [9]: > 100 µM
TGI [10]: > 100 µM
